The record followed here is patent publication US7173004B2, “Macrocyclic isoquinoline peptide inhibitors of hepatitis C virus” (Bristol-Myers Squibb Company, priority 2003, dated 2007).

Some results are limits rather than exact numbers.

The test system of the assay is HCV replicon (HCV 1b-377-neo replicon cells, Huh7). The assay can be described thus: HCV replicon cell-based FRET assay. The settings on record: Hepatitis C virus, Huh-7. The method, then: HCV Replion assays were utilized in the present invention, and were prepared, conducted and validated as follows:
An HCV replicon whole cell system was established as described by Lohmann V, Korner F, Koch J, Herian U, Theilmann L, Bartenschlager R., Science 285(5424): 110–3 (1999). This system enabled us to evaluate the effects of our HCV Protease compounds on HCV RNA replication. Briefly, using the HCV strain 1B sequence described in the Lohmann paper (Assession number: AJ238799), an HCV cDNA was synthesized by Operon Technologies, Inc. (Alameda, Calif.), and the full-length replicon was then assembled in plasmid pGem9zf(+) (Promega, Madison, Wis.) using standard molecular biology techniques. The replicon consists of (i) the HCV 5′ UTR fused to the first 12 amino acids of the capsid protein, (ii) the neomycin phosphotransferase gene (neo), (iii) the IRES from encephalomyocarditis virus (EMCV), and (iv) HCV NS3 to NS5B genes and the HCV 3′ UTR. Plasmid DNAs were linearized with ScaI and RNA transcripts were synthesized in vitro using the T7 MegaScript transcription kit (Ambion, Austin, Tex.) according to manufacturer's directions. To generate cell lines, 4×10^6 Huh-7 cells (kindly provided by R. Bartenschlager and available from Health Science Research Resources Bank, Japan Health Sciences Foundation) were electroporated (GenePulser System, Bio-Rad) with 10 microgram(“μg”) of RNA transcript and plated into 100-mm dishes. After 24 h, selective media containing 1.0 milligrams/milliliter (“mg/ml”) G418 was added and media was changed every 3 to 5 days. Approximately 4 weeks after electroporation, small colonies were visible which were isolated and expanded for further analysis. These cell lines were maintained at 37° C., 5% CO2, 100% relative humidity in DMEM (Cat# 11965-084) Gibco-BRL, Rockville, Md., with 10% heat inactivated calf serum (Sigma), 10 ml of 100× penicillin/streptomycin (Cat# 15140-122) Gibco-BRL, Rockville, Md., Geneticin (Cat# 10131-027) Gibco-BRL, Rockville, Md. at 1 mg/ml. One of the cell lines (deposited as ATCC Accession No. PTA-4583 in the American Type Culture Collection) which had approximately 3,000 copies of HCV replicon RNA/cell was used for development of the assay (HCV 1b-377-neo replicon cells).
Huh7 cells, constitutively expressing the HCV replicon, were grown in Dulbecco's Modified Eagle Media (DMEM) containing 10% Fetal calf serum (FCS) and 1 mg/ml G418 (Gibco-BRL). Cells were seeded the night before (1.5×10^4 cells/well) in 96-well tissue-culture sterile plates. Compound and no compound controls were prepared in DMEM containing 4% FCS, 1:100 Penicillin/Streptomysin, 1:100 L-glutamine and 5% DMSO in the dilution plate (0.5% DMSO final concentration in the assay). Compound/DMSO mixes were added to the cells and incubated for 4 days at 37° C. After 4 days, cells were first assessed for cytotoxicity using alamar Blue (Trek Diagnotstic Systems) for a CC50 reading. The toxicity of compound (CC50) was determined by adding 1/10th volume of alamar Blue to the media incubating the cells. After 4 hr, the fluorescence signal from each well was read, with an excitation wavelength at 530 nm and an emission wavelength of 580 nm, using the Cytofluor Series 4000 (Perspective Biosystems). Plates were then rinsed thoroughly with Phosphate-Buffered Saline (PBS) (3 times 150 μl). The cells were lysed with 25 μl of a lysis assay reagent containing an HCV protease substrate (5× cell Luciferase cell culture lysis reagent (Promega #E153A) diluted to 1× with distilled water, NaCl added to 150 mM final, the FRET peptide diluted to 10 μM final from a 2 mM stock in 100% DMSO). The HCV protease substrate (FRET peptide; AnaSpec, Inc. cat #22991, described by Taliani et al. in Anal. Biochem. 240(2):60–67 (1996)) contains a fluorescence donor, EDANS, near one end of the peptide and an acceptor, DABCYL, near the other end. […]
Background: Replicon systems follow genome replication, usually without infectious particles.
Usually EC50 stands for the concentration needed to bring the measured effect to its halfway point. Low values mean a more potent agent, high ones a less potent agent. `COc1ccc2c(OC3CC4C(=O)NC5(C(=O)NS(=O)(=O)C6(C)CC6)CC5C=CCCCS(=O)(=O)CC(NC(=O)OC(C)(C)C)C(=O)N4C3)nccc2c1` (stereo not drawn) [Compound 49] had an EC50 of 500 to 5000 nM.
Compound `CC1(OC(=O)NC2CCCCCC=CC3CC3(C(=O)NS(=O)(=O)C3CC3)NC(=O)C3CC(Oc4nccc5ccccc45)CN3C2=O)CCCC1` (stereo not drawn) [Compound 50] had an EC50 of under 50 nM.
With `CC(C)(OC(=O)NC1CCCCCC=CC2CC2(C(=O)NS(=O)(=O)C2CC2)NC(=O)C2CC(Oc3nccc4ccccc34)CN2C1=O)C(F)(F)F` (stereo not drawn) [Compound 51] the figure was under 50 nM; with `CC(C)(CCl)OC(=O)NC1CCCCCC=CC2CC2(C(=O)NS(=O)(=O)C2CC2)NC(=O)C2CC(Oc3nccc4ccccc34)CN2C1=O` (stereo not drawn) [Compound 52], under 50 nM; with `COc1ccc2c(OC3CC4C(=O)NC5(C(=O)NS(=O)(=O)C6(C)CC6)CC5C=CCCCCCC(NC(=O)OC(C)(C)C)C(=O)N4C3)nccc2c1` (stereo not drawn) [Compound 53], under 50 nM.
For the compound `CCC1(S(=O)(=O)NC(=O)C23CC2C=CCCCCCC(NC(=O)OC(C)(C)C)C(=O)N2CC(Oc4nccc5cc(OC)ccc45)CC2C(=O)N3)CC1` (stereo not drawn) [Compound 54], the EC50 is under 50 nM.
`CC1(OC(=O)N[C@H]2CCCCC/C=C\[C@@H]3C[C@@]3(C(=O)NS(=O)(=O)C3CC3)NC(=O)[C@@H]3C[C@@H](Oc4nccc5ccccc45)CN3C2=O)CCC1` [Compound 56, [(Z)-(1S,4R,14S,18R)-4-cyclopropanesulfonylaminocarbonyl-18-(isoquinolin-1-yloxy)-2,15-dioxo-3,16-diaza-tricyclo[14.3.0.0^4,6]nonadec-7-en-14-yl]-carbamic acid 1-methyl-cyclobutyl ester] displayed an EC50 of under 50 nM.
For `CC(C)(C)OC(=O)NC1CCCCCC=CC2CC2(C(=O)NS(=O)(=O)C2CC2)NC(=O)C2CC(Oc3nc(Cl)cc4ccccc34)CN2C1=O` (stereo not drawn) [Compound 57] the value was under 50 nM; for `CC(C)(C)OC(=O)N[C@H]1CCCCC/C=C\[C@@H]2C[C@@]2(C(=O)NS(=O)(=O)C2CC2)NC(=O)[C@@H]2C[C@@H](Oc3nc(-c4ccccc4)cc4ccccc34)CN2C1=O` [Compound 58, [(Z)-(1S,4R,14S,18R)-4-cyclopropanesulfonylaminocarbonyl-2,15-dioxo-18-(3-phenyl-isoquinolin-1-yloxy)-3,16-diaza-tricyclo[14.3.0.0^4,6]nonadec-7-en-14-yl]-carbamic acid tert-butyl ester], under 50 nM.
With `CC1(OC(=O)NC2CCCCCC=CC3CC3(C(=O)NS(=O)(=O)C3CC3)NC(=O)C3CC(Oc4nccc5ccccc45)CN3C2=O)CC1` (stereo not drawn) [Compound 59] the figure was under 50 nM; with `COc1ccc2c(OC3CC4C(=O)NC5(C(=O)NS(=O)(=O)C6CC6)CC5C=CCCCCCC(NC(=O)N5CCCC5)C(=O)N4C3)nccc2c1` (stereo not drawn) [Compound 60], under 50 nM; with `COc1ccc2c(O[C@@H]3C[C@H]4C(=O)N[C@]5(C(=O)O)C[C@H]5/C=C\CCCO[C@H](C)[C@H](NC(=O)OC(C)(C)C)C(=O)N4C3)nccc2c1` [Compound 61], 5000 to 50000 nM.
For `COc1ccc2c(OC3CC4C(=O)NC5(C(=O)NS(=O)(=O)C6CC6)CC5C=CCCCOC(C)C(NC(=O)OC(C)(C)C)C(=O)N4C3)nccc2c1` (stereo not drawn) [Compound 62] the value was 50 to 500 nM; for `COc1ccc2c(OC3CC4C(=O)NC5(C(=O)NS(=O)(=O)C6CC6)CC5C=CCCCOC(C)C(NC(=O)OCC(C)(C)C)C(=O)N4C3)nccc2c1` (stereo not drawn) [Compound 63], 50 to 500 nM; for `COc1ccc2c(OC3CC4C(=O)NC5(C(=O)NS(=O)(=O)C6CC6)CC5C=CCCCOC(C)C(NC(=O)OC(C)C)C(=O)N4C3)nccc2c1` (stereo not drawn) [Compound 64], 50 to 500 nM.
`COc1ccc2c(OC3CC4C(=O)NC5(C(=O)NS(=O)(=O)C6CC6)CC5C=CCCCOC(C)C(NC(=O)NC5CCCC5)C(=O)N4C3)nccc2c1` (stereo not drawn) [Compound 65]: the EC50 was under 50 nM.
With `COc1ccc2c(OC3CC4C(=O)NC5(C(=O)NS(=O)(=O)C6(C)CC6)CC5C=CCCCOC(C)C(NC(=O)OC(C)(C)C)C(=O)N4C3)nccc2c1` (stereo not drawn) [Compound 66] the figure was 50 to 500 nM; with `COc1ccc2c(OC3CC4C(=O)NC5(C(=O)NS(=O)(=O)C6(C)CC6)CC5C=CCCCOC(C)C(NC(=O)OCC(C)(C)C)C(=O)N4C3)nccc2c1` (stereo not drawn) [Compound 67], 50 to 500 nM; with `COc1ccc2c(OC3CC4C(=O)NC5(C(=O)NS(=O)(=O)C6(C)CC6)CC5C=CCCCOC(C)C(NC(=O)OC(C)C)C(=O)N4C3)nccc2c1` (stereo not drawn) [Compound 68], 50 to 500 nM.
With `COc1ccc2c(OC3CC4C(=O)NC5(C(=O)NS(=O)(=O)C6(C)CC6)CC5C=CCCCOC(C)C(NC(=O)NC5CCCC5)C(=O)N4C3)nccc2c1` (stereo not drawn) [Compound 69] the figure was under 50 nM; with `CCC1(S(=O)(=O)NC(=O)C23CC2C=CCCCOC(C)C(NC(=O)OC(C)(C)C)C(=O)N2CC(Oc4nccc5cc(OC)ccc45)CC2C(=O)N3)CC1` (stereo not drawn) [Compound 70], 50 to 500 nM.
For `CCC1(S(=O)(=O)NC(=O)C23CC2C=CCCCOC(C)C(NC(=O)OCC(C)(C)C)C(=O)N2CC(Oc4nccc5cc(OC)ccc45)CC2C(=O)N3)CC1` (stereo not drawn) [Compound 71] the value was 50 to 500 nM; for `CCC1(S(=O)(=O)NC(=O)C23CC2C=CCCCOC(C)C(NC(=O)OC(C)C)C(=O)N2CC(Oc4nccc5cc(OC)ccc45)CC2C(=O)N3)CC1` (stereo not drawn) [Compound 72], 50 to 500 nM; for `CCC1(S(=O)(=O)NC(=O)C23CC2C=CCCCOC(C)C(NC(=O)NC2CCCC2)C(=O)N2CC(Oc4nccc5cc(OC)ccc45)CC2C(=O)N3)CC1` (stereo not drawn) [Compound 73], 50 to 500 nM.
`COc1ccc2c(OC3CC4C(=O)NC5(C(=O)NS(=O)(=O)C6CC6)CC5C=CCCCSCC(NC(=O)OC(C)C)C(=O)N4C3)nccc2c1` (stereo not drawn) [Compound 74] registered an EC50 of under 50 nM.
For `COc1ccc2c(OC3CC4C(=O)NC5(C(=O)NS(=O)(=O)C6CC6)CC5C=CCCCSCC(NC(=O)OCC(C)(C)C)C(=O)N4C3)nccc2c1` (stereo not drawn) [Compound 75] the value was under 50 nM.
Take `CC(C)(C)OC(=O)NC1CSCCCC=CC2CC2(C(=O)NS(=O)(=O)C2CC2)NC(=O)C2CC(Oc3nccc4c(Cl)cccc34)CN2C1=O` (stereo not drawn) [Compound 78]: the EC50 was under 50 nM.
With `COc1ccc2c(O[C@@H]3C[C@H]4C(=O)N[C@]5(C(=O)O)C[C@H]5/C=C\CCCSC(C)(C)[C@H](NC(=O)OC(C)(C)C)C(=O)N4C3)nccc2c1` [Compound 79, (1S,4R,6S,14R,18R)-7-cis-14-tert-Butoxycarbonylamino-13,13-dimethyl-18-(6-methoxy-isoquinolin-1-yloxy)-2,15-dioxo-12-thia-3,16-diazatricyclo[14.3.0.0^4,6]nonadec-7-ene-4-carboxylic acid] the figure was 5000 to 50000 nM.
Turning to `COc1ccc2c(O[C@@H]3C[C@H]4C(=O)N[C@]5(C(=O)O)C[C@H]5/C=C\CCCOC[C@H](NC(=O)OC(C)(C)C)C(=O)N4C3)nccc2c1` [Compound 84, (1S,4R,6S,14S,18R)-7-cis-14-tert-Butoxycarbonylamino-18-(6-methoxyisoquinolin-1-yloxy)-2,15-dioxo-12-oxa-3,16-diazatricyclo[14.3.0.0^4,6]-nonadec-7-ene-4-carboxylic acid], the EC50 was 500 to 5000 nM.
Compound `COc1ccc2c(OC3CC4C(=O)NC5(C(=O)O)CC5C=CCCCCC(NC(=O)OC(C)(C)C)C(=O)N4C3)nccc2c1` (stereo not drawn) [Compound 143] returned an EC50 of 500 to 5000 nM.
